Experimental data reported in US20130102638A1, “METHODS AND COMPOSITIONS FOR CONTROLLING ALGAE” (priority 2002, published 2013).

How the values were obtained:
algal species = assay: Algal culture exposure, overall observations; format: cell-based
Protocol: (§1) A stock solution of 50 micrograms picolinafen/L was prepared from technical grade picolinafen. Axenic algal cultures of Scenedesmus and Ankistrodesmus (green phytoplankton), Pithophora and Oedogonium (filamentous green), and Anabaena, Oscillatoria, and Pseudanabaena (blue-green) were grown. Stock material from these cultures was placed in 250 ml of CLII media (a known, defined algal growth medium). Following the addition of the algae, picolinafen was added to the beakers to achieve concentrations of 0, 1.5, 5, 10, 25, and 50 ppb. Each treatment was replicated three times and beakers were placed in Percival growth chambers that were set at 25° C., with a light intensity of 300 micromoles/square meter/second and a 16:8 photoperiod. The algae were given a 10 to 14 day incubation period, and depending on the growth form of the algae, either total chlorophyll, cell counts, or algal biomass were quantified as end points.

[1] = tested on: Pseudanabaena (blue-green); assay: Picolinafen on axenic Pseudanabaena culture, cell counts; format: cell-based; conditions: 10-day exposure
Protocol: as §1

Oedogonium = assay: Picolinafen on axenic Oedogonium culture, total chlorophyll and biomass; format: cell-based; conditions: 10-day exposure
Protocol: as §1

hydrilla = assay: Impact on growth of hydrilla; format: in vivo; conditions: at levels showing significant control of the algal species
[2] = tested on: Pithophora (filamentous green); assay: Picolinafen on axenic Pithophora culture, biomass; format: cell-based; conditions: 10-day exposure
Protocol: as §1

Anabaena = assay: Picolinafen on axenic Anabaena culture, total chlorophyll; format: cell-based; conditions: for Total Chl: 10-day exposure
Protocol: as §1

Spirogyra = assay: Picolinafen on Spirogyra culture, biomass; format: cell-based; conditions: 10-day exposure
Protocol: [The source words this procedure for another organism and reports this organism under the same test.] as §1

Oscillatoria = assay: Picolinafen on axenic Oscillatoria culture, total chlorophyll; format: cell-based; conditions: 10-day exposure
Protocol: as §1

Scenedesmus = assay: Picolinafen on axenic Scenedesmus culture, total chlorophyll; format: cell-based; conditions: 10-day exposure
Protocol: as §1

eurasian watermilfoil = assay: Impact on growth of eurasian watermilfoil; format: in vivo; conditions: at levels showing significant control of the algal species
Ankistrodesmus = assay: Picolinafen on axenic Ankistrodesmus culture, cell counts; format: cell-based; conditions: 10-day exposure
Protocol: as §1

## O=C(Nc1ccc(F)cc1)c1cccc(Oc2cccc(C(F)(F)F)c2)n1 [Picolinafen, N-(4-fluorophenyl)-6-[3-(trifluoromethyl)phenoxy]-2-pyridinecarboxamide]
Algal species; concentrations of 10 ppb and less
  sensitivity of most algal species: highly sensitive
Algal species; some of the test species
  time to bleaching (visual observations): ≤ 12 h
Algal species; two aquatic macrophyte species compared with various algal species
  algacidal versus herbicidal activity in the aquatic environment: greater algacidal than herbicidal activity
[1]; 1.5 ppb
  Cell Count: 2,344 cells/ml
[1]; 5 ppb
  Cell Count: 89 cells/ml
[1]; 10 ppb
  Cell Count: 52 cells/ml
[1]; 25 ppb
  Cell Count: 98 cells/ml
[1]; 50 ppb
  Cell Count: 77 cells/ml
Oedogonium; 1.5 ppb
  Biomass: 0.064 mg dry wt./beaker
  Total Chl: 1522 μg chl.
Oedogonium; 5 ppb
  Biomass: 0.027 mg dry wt./beaker
  Total Chl: 1057 μg chl.
Oedogonium; 10 ppb
  Biomass: 0.019 mg dry wt./beaker
  Total Chl: 342 μg chl.
Oedogonium; 25 ppb
  Biomass: 0.011 mg dry wt./beaker
  Total Chl: 247 μg chl.
Oedogonium; 50 ppb
  Biomass: 0.005 mg dry wt./beaker
  Total Chl: 144 μg chl.
hydrilla
  impact upon the growth of hydrilla: substantially no impact
[2]; 1.5 ppb
  Biomass: 26.2 mg dry wt./beaker
[2]; 5 ppb
  Biomass: 19.1 mg dry wt./beaker
[2]; 10 ppb
  Biomass: 20.4 mg dry wt./beaker
[2]; 25 ppb
  Biomass: 14.8 mg dry wt./beaker
[2]; 50 ppb
  Biomass: 11.4 mg dry wt./beaker
Anabaena
  tolerance of Anabaena compared to other algal species: highest level of tolerance
Anabaena; 1.5 ppb
  Total Chl: 880 μg chl.
Anabaena; 5 ppb
  Total Chl: 906 μg chl.
Anabaena; 10 ppb
  Total Chl: 685 μg chl.
Anabaena; 25 ppb
  Total Chl: 526 μg chl.
Anabaena; 50 ppb
  Total Chl: 101 μg chl.
Spirogyra; 1.5 ppb
  Biomass: 16.2 mg dry wt./beaker
Spirogyra; 5 ppb
  Biomass: 6.9 mg dry wt./beaker
Spirogyra; 10 ppb
  Biomass: 3.0 mg dry wt./beaker
Spirogyra; 25 ppb
  Biomass: 3.8 mg dry wt./beaker
Spirogyra; 50 ppb
  Biomass: 3.3 mg dry wt./beaker
Oscillatoria; 1.5 ppb
  Total Chl: 14 μg chl.
Oscillatoria; 5 ppb
  Total Chl: 10 μg chl.
Oscillatoria; 10 ppb
  Total Chl: 21 μg chl.
Oscillatoria; 25 ppb
  Total Chl: 17 μg chl.
Oscillatoria; 50 ppb
  Total Chl: 13 μg chl.
Scenedesmus; 1.5 ppb
  Total Chl: 2427 (119) μg chl/g
Scenedesmus; 5 ppb
  Total Chl: 87 (16) μg chl/g
Scenedesmus; 10 ppb
  Total Chl: 15 (6) μg chl/g
Scenedesmus; 25 ppb
  Total Chl: 17 (8) μg chl/g
Scenedesmus; 50 ppb
  Total Chl: 12 (6) μg chl/g
Eurasian watermilfoil
  impact upon the growth of eurasian watermilfoil: substantially no impact
Ankistrodesmus; 1.5 ppb
  Cell Count: 3,025,323 cells/ml
Ankistrodesmus; 5 ppb
  Cell Count: 141,246 cells/ml
Ankistrodesmus; 10 ppb
  Cell Count: 96,622 cells/ml
Ankistrodesmus; 25 ppb
  Cell Count: 87,012 cells/ml
Ankistrodesmus; 50 ppb
  Cell Count: 81,706 cells/ml
